# The source made the active and inactive calls. The rule behind the calls is not given here.
# Experiments:
# [1] = target: T1, Adenosine receptor A1 (Homo sapiens) (UniProt P30542); test: Displacement of [3H]R-PIA from human recombinant adenosine receptor-1 expressed in CHO cell membrane at 10 uM after 60 mins by liquid scintillation counting; format: cell membranes
# T1 sequence (whole entry): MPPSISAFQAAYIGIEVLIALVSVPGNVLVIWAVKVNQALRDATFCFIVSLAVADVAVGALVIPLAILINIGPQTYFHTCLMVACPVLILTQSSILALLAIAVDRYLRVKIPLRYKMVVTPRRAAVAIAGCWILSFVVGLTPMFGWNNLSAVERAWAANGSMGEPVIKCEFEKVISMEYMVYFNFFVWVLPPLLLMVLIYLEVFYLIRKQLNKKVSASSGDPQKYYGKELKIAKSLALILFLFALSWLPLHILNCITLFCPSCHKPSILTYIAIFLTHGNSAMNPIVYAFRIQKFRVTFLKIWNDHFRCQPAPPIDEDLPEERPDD
# Adenosine receptor A2a [2] = target: T2, Adenosine receptor A2a (Homo sapiens, UniProt P29274); test: Displacement of [3H]CGS21680 from human recombinant adenosine receptor-2A expressed in HEK293 cell membrane at 10 uM after 60 mins by liquid scintillation counting; format: cell membranes
# Adenosine receptor A1 [3] = target: T3, Adenosine receptor A1 (Homo sapiens, UniProt P30542); test: Agonist activity at human recombinant adenosine receptor-1 expressed in CHO cells assessed as inhibition of forskolin-stimulated cAMP production preincubated for 45 mins prior forskolin-induction measured after 15 mins by immunoassay; format: functional, cell-based
# T3 sequence (P30542 whole entry): T1 sequence (whole entry)
# Adenosine receptor A1 [4] = target: T4, Adenosine receptor A1 (Rattus norvegicus, UniProt P25099); test: Displacement of [3H]R-PIA from rat forebrain adenosine receptor-1
# T4 sequence (P25099 whole entry): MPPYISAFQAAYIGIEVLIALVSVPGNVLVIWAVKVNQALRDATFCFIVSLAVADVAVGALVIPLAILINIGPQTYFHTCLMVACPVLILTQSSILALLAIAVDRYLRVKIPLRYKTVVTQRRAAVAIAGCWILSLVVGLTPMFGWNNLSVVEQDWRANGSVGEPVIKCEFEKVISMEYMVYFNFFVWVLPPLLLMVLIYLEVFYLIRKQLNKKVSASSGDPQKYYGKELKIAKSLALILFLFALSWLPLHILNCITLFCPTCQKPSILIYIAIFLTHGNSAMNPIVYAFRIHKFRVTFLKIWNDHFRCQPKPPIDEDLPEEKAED
# Adenosine receptor A1 [5] = target: T3, Adenosine receptor A1; test: Displacement of [3H]R-PIA from human recombinant adenosine receptor-1 expressed in CHO cell membrane after 60 mins by liquid scintillation counting; format: cell membranes
# Adenosine receptor A2a [6] = target: T2, Adenosine receptor A2a; test: Displacement of [3H]CGS21680 from human recombinant adenosine receptor-2A expressed in HEK293 cell membrane after 60 mins by liquid scintillation counting; format: cell membranes
# Adenosine receptor A3 = target: T5, Adenosine receptor A3 (Homo sapiens, UniProt P0DMS8); test: Displacement of [125I]AB-MECA from human recombinant adenosine receptor-3 expressed in CHO cell membrane after 60 mins by gamma-counting; format: cell membranes
# T5 sequence (P0DMS8 whole entry): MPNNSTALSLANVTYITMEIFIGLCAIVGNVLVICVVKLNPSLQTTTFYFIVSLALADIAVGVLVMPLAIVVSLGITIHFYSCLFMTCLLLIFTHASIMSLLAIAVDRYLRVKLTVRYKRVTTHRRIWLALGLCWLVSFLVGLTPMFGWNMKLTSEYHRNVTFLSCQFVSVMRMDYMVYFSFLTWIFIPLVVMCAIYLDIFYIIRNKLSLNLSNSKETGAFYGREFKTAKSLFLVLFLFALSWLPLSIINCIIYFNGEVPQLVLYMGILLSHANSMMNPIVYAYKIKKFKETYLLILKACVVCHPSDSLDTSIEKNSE
# [7] = target: T1, Adenosine receptor A1 (Homo sapiens); test: Agonist activity at human recombinant adenosine receptor-1 expressed in CHO cells assessed as inhibition of forskolin-stimulated cAMP production at 10 uM preincubated for 45 mins prior forskolin-induction measured after 15 mins by immunoassay relative to 10 uM CPA; format: functional, cell-based
# Homo sapiens [8] = organism: Homo sapiens; test: Selectivity ratio of Ki for human recombinant adenosine receptor-3 to Ki for human recombinant adenosine receptor-1
# Homo sapiens [9] = organism: Homo sapiens; test: Selectivity ratio of Ki for human recombinant adenosine receptor-1 to Ki for human recombinant adenosine receptor-3
# [10] = target: T6, Adenosine receptor A1 (Rattus norvegicus) (UniProt P25099); test: Antagonist activity at adenosine receptor-1 in rat adipocytes; format: functional, cell-based
# T6 sequence (whole entry): T4 sequence (P25099 whole entry)
# [11] = target: T7, Adenosine receptor A3 (Rattus norvegicus) (UniProt P28647); test: Partial agonist activity at rat adenosine receptor-3; format: functional
# T7 sequence (whole entry): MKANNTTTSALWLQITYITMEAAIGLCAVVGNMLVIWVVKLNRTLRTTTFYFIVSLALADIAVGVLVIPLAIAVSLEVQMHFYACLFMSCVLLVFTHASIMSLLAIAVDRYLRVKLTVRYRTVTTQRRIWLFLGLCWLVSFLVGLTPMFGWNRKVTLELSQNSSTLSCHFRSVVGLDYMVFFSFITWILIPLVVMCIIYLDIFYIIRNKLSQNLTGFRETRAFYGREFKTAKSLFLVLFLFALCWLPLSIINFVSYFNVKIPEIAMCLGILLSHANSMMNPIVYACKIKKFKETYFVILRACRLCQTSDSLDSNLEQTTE
# T2 sequence (P29274 whole entry): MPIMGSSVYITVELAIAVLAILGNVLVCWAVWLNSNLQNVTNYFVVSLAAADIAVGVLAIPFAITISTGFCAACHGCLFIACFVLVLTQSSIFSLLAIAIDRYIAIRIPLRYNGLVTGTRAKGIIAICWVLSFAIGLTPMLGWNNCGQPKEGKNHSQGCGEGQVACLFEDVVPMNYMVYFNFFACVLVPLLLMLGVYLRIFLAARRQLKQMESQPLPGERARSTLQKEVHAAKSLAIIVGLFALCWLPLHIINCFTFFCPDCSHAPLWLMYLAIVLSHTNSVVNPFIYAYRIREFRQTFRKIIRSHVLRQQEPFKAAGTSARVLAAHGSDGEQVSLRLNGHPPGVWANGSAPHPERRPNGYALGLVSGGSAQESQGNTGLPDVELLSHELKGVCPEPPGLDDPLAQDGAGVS
Structure (SMILES),inhibition (Adenosine receptor A2a [2]) [%],Ki (Adenosine receptor A1 [4]) [nM],Ki (Adenosine receptor A3) [nM],inhibition [7] [%],further results
O[C@@H]1[C@H](O)[C@@H]2C[C@@H]2[C@H]1n1cnc2c(NCc3ccccc3OCCF)nc(Cl)nc21,32,,,,inhibition [1]: 46%
CCC(CC)Nc1nc(Cl)nc2c1ncn2[C@H]1[C@H](O)[C@H](O)[C@@H]2C[C@@H]21,,,,28.6,
O[C@@H]1[C@H](O)[C@@H]2C[C@@H]2[C@H]1n1cnc2c(NCc3cc(F)ccc3F)nc(Cl)nc21,38,,16.5,,Ki (Adenosine receptor A1 [5]): 1260 nM
O[C@@H]1[C@H](O)[C@@H]2C[C@@H]2[C@H]1n1cnc2c(NCc3cccc(OCCF)c3)nc(Cl)nc21,46,,114,,Ki (Adenosine receptor A1 [5]): 3580 nM
COc1cc(F)c(F)cc1CNc1nc(Cl)nc2c1ncn2[C@H]1[C@H](O)[C@H](O)[C@@H]2C[C@@H]21,,,40.4,,Ki (Adenosine receptor A1 [5]): 1910 nM; Ki (Adenosine receptor A2a [6]): 7510 nM
CCOc1ccccc1CNc1nc(Cl)nc2c1ncn2[C@H]1[C@H](O)[C@H](O)[C@@H]2C[C@@H]21,32,,15.2,,inhibition [1]: 34%
COc1ccc(F)c(F)c1CNc1nc(Cl)nc2c1ncn2[C@H]1[C@H](O)[C@H](O)[C@@H]2C[C@@H]21,30,,83.2,,inhibition [1]: 41%
O[C@@H]1[C@H](O)[C@@H]2C[C@@H]2[C@H]1n1cnc2c(N[C@H]3C[C@H]4CC[C@H]3C4)nc(Cl)nc21,,0.34,315,62.1,Ki (Adenosine receptor A1 [5]): 82.6 nM; Ki (Adenosine receptor A2a [6]): 2450 nM; Ratio Ki (Homo sapiens [8]): 4
O[C@@H]1[C@H](O)[C@@H]2C[C@@H]2[C@H]1n1cnc2c(NCc3ccccc3F)nc(Cl)nc21,31,6,,,Ratio Ki (Homo sapiens [9]): 115
CCCCn1c(=O)c2c(ncn2[C@@H]2O[C@H](C(=O)NC)C[C@H]2O)n(CCCC)c1=O,,,,,Activity [10]: Active; Activity [11]: Active

# Now from value to compound, other results behind:
inhibition (Adenosine receptor A2a [2]) [%],Ki (Adenosine receptor A1 [4]) [nM],Ki (Adenosine receptor A3) [nM],inhibition [7] [%],Structure (SMILES),further results
,0.8,,,O[C@@H]1[C@H](O)[C@@H]2C[C@@H]2[C@H]1n1cnc2c(NC(C3CC3)C3CC3)nc(Cl)nc21,EC50 (Adenosine receptor A1 [3]): 40.7 nM
,0.7,236,27.8,O[C@@H]1[C@H](O)[C@@H]2C[C@@H]2[C@H]1n1cnc2c(N[C@@H]3C[C@H]4CC[C@H]3C4)nc(Cl)nc21,Ki (Adenosine receptor A1 [5]): 200 nM; Ki (Adenosine receptor A2a [6]): 4080 nM
,,,79,O[C@@H]1[C@H](O)[C@@H]2C[C@@H]2[C@H]1n1cnc2c(NC3CC3)nc(Cl)nc21,
29,,,23.2,O[C@@H]1[C@H](O)[C@@H]2C[C@@H]2[C@H]1n1cnc2c(NCCCF)nc(Cl)nc21,
,0.7,,,O[C@@H]1[C@H](O)[C@@H]2C[C@@H]2[C@H]1n1cnc2c(NC3CCC3)nc(Cl)nc21,
,,,68.1,Nc1nc(Cl)nc2c1ncn2[C@H]1[C@H](O)[C@H](O)[C@@H]2C[C@@H]21,
,0.8,,81,O[C@@H]1[C@H](O)[C@@H]2C[C@@H]2[C@H]1n1cnc2c(NCC3CC3)nc(Cl)nc21,
,0.9,,38,O[C@@H]1[C@H](O)[C@@H]2C[C@@H]2[C@H]1n1cnc2c(NC3CCCCC3)nc(Cl)nc21,Ratio Ki (Homo sapiens [8]): 2
,,,48.1,O[C@@H]1[C@H](O)[C@@H]2C[C@@H]2[C@H]1n1cnc2c(NC3CCCCCC3)nc(Cl)nc21,
39,1.9,,50.5,CC(C)Nc1nc(Cl)nc2c1ncn2[C@H]1[C@H](O)[C@H](O)[C@@H]2C[C@@H]21,
43,,,40.1,O[C@@H]1[C@H](O)[C@@H]2C[C@@H]2[C@H]1n1cnc2c(NC3CCCCCCC3)nc(Cl)nc21,Ratio Ki (Homo sapiens [8]): 2
41,,,,CC(Nc1nc(Cl)nc2c1ncn2[C@H]1[C@H](O)[C@H](O)[C@@H]2C[C@@H]21)C1CC1 (mixture of isomers),
11,,,,CCNc1nc(Cl)nc2c1ncn2[C@H]1[C@H](O)[C@H](O)[C@@H]2C[C@@H]21,
